Assay results from patent US20190367737A1, “CELL-PENETRATING FLUORESCENT DYES WITH SECONDARY ALCOHOL FUNCTIONALITIES” (Max-Planck-Gesellschaft zur foerderung der Wissenschaften …, priority 2016, published 2019).
Values joined by “and” are separate entries in the source; they are usually repeats but may differ in a detail not shown here. Equal values may be shown once. Read-outs that look alike come from different tables or passages of the source. One block for each molecule: values may come before it.

Experiments:
[1] = cited from earlier work
[2] = D0.5 in 1,4-dioxane/water (closing into colorless spirolactone form); type: physicochemical
[3] = Absorption, emission and fluorescence quantum yield of the dyes; type: physicochemical; conditions: for fluorescence quantum yield relative to Oxazine 1: PBS 7.4, Oxazine 1 Φfl=0.14 in ethanol; for fluorescence quantum yield: in PBS / aqueous buffers
Procedure: Absorption spectra were recorded with a Varian Cary 4000 UV-Vis double-beam spectrophotometer (Agilent Technologies, USA). For the determination of the absorption spectra, quartz cells with a 1 cm path length were used. Emission spectra and fluorescence quantum yield were obtained on a Quantaurus-QY Absolute PL quantum yield spectrometer C11347 (Hamamatsu Photonics, Japan) or on a Varian Cary Eclipse fluorescence spectrometer (Agilent Technologies, USA).

[4] = system: tubulin filaments in HeLa cells; test: Live-cell tubulin labeling, confocal and STED imaging, HeLa cells; type: cell-based; conditions: 1-5 μM, 20 minutes at 37° C.
Procedure: (§1) Either HeLa or U2OS cells were used. Cells were grown on #1.5 coverslips and cultured at 37° C. with 5% CO2 in DMEM (Dulbecco's modified Eagle's medium) supplemented with 10% FBS (fetal bovine serum), 1% sodium pyruvate and 1% penicillin/streptomycin. The U2OS cell line is a stable cell line which has a stable expression of the vimentin-HaloTag fusion protein (M. Ratz, I. Testa, S. W. Hell, S. Jakobs, Sci. Rep. 2015, 5, 9592). For the expression of vimentin-HaloTag fusion protein in HeLa cells, cells were transfected with 3 μg DNA/well using TurboFect™ Transfection Reagent (Fermentas/Thermo Scientific™, Life Technologies brand) in a 6 well plate. […]
(§2) Fluorescence detection was done in two spectral detection channels, 605-625 nm and 650-720 nm. […]
19-Tubulin was excited with a pulsed 640 nm laser and fluorescence was detected from 650-720 nm. […] For the STED image the fluorescence counts of 4 scans per line were accumulated with a pixel dwell time of 7 μs. […]
33-Tubulin was excited with a pulsed 640 nm laser and fluorescence was detected from 650-720 nm. […] The STED image was recorded with a pixel dwell time of 15 μs. […]

[5] = Formation and stability of the NHS ester; type: physicochemical
Procedure: • Three stock solutions (A, B and C) were prepared. Solution A: 22 mg HATU (1-[bis(dimethylamino)methylene]-1H-1,2,3-triazolo[4,5-b]pyridinium 3-oxid hexafluorophosphate) in dry DMF (0.10 mL); solution B: Et3N (10 mg) in dry DMF (0.10 mL); solution C: N-hydroxysuccinimide (19 mg) in dry DMF (0.10 mL). To a solution of dye 5 (1.7 mg, 2.6 μmol) in dry DMF (0.10 mL), solutions A, B and C were added successively (14 μL of each solutions) under argon, and the mixture was stirred for 30 min at room temperature. HPLC analysis indicated the conversion degree of 94-95%. […] After removing DMF in vacuo, amide 5-Halo was isolated by preparative HPLC (˜1 mg, 46%), dissolved in DMSO (400 μL), and this stock-solution was used (after dilution with aqueous PBS to 1-5 μM) in labeling experiments with living cells (see section with imaging results). ESI-MS (C41H44C1F6N308, 855.27), positive mode: m/z (rel. int., %)=856 (100) [M+H]^+. HR-MS, ESI (positive mode): m/z=878.2591 (found [M+Na]^+), 878.2613 (calc.).

[6] = Solubility in water and organic solvents; type: physicochemical; conditions: water, aqueous solutions, alcohols, DMSO, DMF, organic solvents as stated
[7] = system: vimentin-HaloTag fusion protein in U2OS cells; test: Live-cell labeling, confocal and STED imaging, U2OS cells; type: cell-based; conditions: 1 μM, 20 minutes at 37° C.
Procedure: as §1, §2
14a-Halo was excited with a pulsed 561 nm laser and fluorescence was detected in both detection windows: 605-625 nm and 650-720 nm. […] For the STED image the fluorescence counts of 3 scans per line were accumulated with a pixel dwell time of 15 μs. […]
6-ROX-Halo was excited with a pulsed 561 nm laser and fluorescence was detected in two detection windows: 605-625 nm and 650-720 nm. […] For the STED image the fluorescence counts of 3 scans per line were accumulated with a pixel dwell time of 15 μs. […]
19-Halo was excited with a pulsed 640 nm laser and fluorescence was detected from 650-720 nm. […]

[8] = commercial dyes, solvent not stated
[9] = aqueous PBS buffer, parent Q-rhodamine
[10] = aqueous solutions, dye 5 isomer 3

Molecule: COc1cc2c(c(Cl)c1O)Oc1c(cc(OC)c(O)c1Cl)C21OC(=O)c2ccc(C(=O)O)cc21 [Compound 6-JOE, 6-JOE]
- absorption maximum [1, 8]: 520 nm
- emission maximum [1, 8]: 548 nm
- extinction coefficient ε [1, 8]: 75 000 M^−1 cm^−1

Molecule: CN(C)c1ccc2[c](c1)[Ge]([CH3])([CH3])[c]1cc(N(C)C)ccc1C21OC(=O)c2ccc(C(=O)O)cc21 [Compound 19]
- D0.5 in 1,4-dioxane/water [2]: 65.2
- fluorescence quantum yield relative to Oxazine 1 [3]: 0.43
- absorption maximum λmax ([3]; PBS buffer pH 7.4): 634 nm
- emission maximum λem ([3]; PBS buffer pH 7.4): 655 nm
- extinction coefficient ε ([3]; PBS buffer pH 7.4): 97000 M⁻¹ cm⁻¹
- fluorescence quantum yield [3]: 0.43

Molecule: [CH3][Ge]1([CH3])[c]2cc(N3CC(O)C3)ccc2C2(OC(=O)c3ccc(C(=O)O)cc32)c2ccc(N3CC(O)C3)c[c]21 [Compound 33]
- absorption maximum λmax ([3]; PBS buffer pH 7.4): 631 nm
- emission maximum λem ([3]; PBS buffer pH 7.4): 651 nm
- extinction coefficient ε ([3]; PBS buffer pH 7.4): 61000 M⁻¹ cm⁻¹
- fluorescence quantum yield Φfl, absolute value ([3]; PBS buffer pH 7.4): 0.60
- fluorescence quantum yield [3]: 0.60
- imaging performance in living cells (confocal and STED) [4]: higher brightness

- stability of N-hydroxysuccinimidyl (NHS) ester [5]: stable
Molecule: N-Hydroxysuccinimidyl eater of N,N′-bis-(2,2,2-trifluoro-ethyl)-6′-carboxy-Q-rhodamine-β,β′-diol [Compound 5-NHS]

Molecule: O=C(O)c1ccccc1C1=c2cc3c4c(c2Oc2c1cc1c5c2CCCN5CCC1)CCC[N+]=4CCC3.[Cl-] [Rhodamine 101]
- fluorescence quantum yield ([1]; in both organic and aqueous solutions): more than 0.90

- fluorescence quantum yield [3]: 0.54
Molecule: C[Si]1(C)c2cc(N3CCC3)ccc2C2(OC(=O)c3ccccc32)c2ccc(N3CCC3)cc21 [JF646, reference compound]

Molecule: C[Si]1(C)c2cc(N3CC(O)C3)ccc2C2(OC(=O)c3ccc(C(=O)O)cc32)c2ccc(N3CC(O)C3)cc21 [Compound 42]
- D0.5 in 1,4-dioxane/water [2]: 72.4
- fluorescence quantum yield relative to Oxazine 1 [3]: 0.42
- absorption maximum λmax ([3]; PBS buffer pH 7.4): 641 nm
- emission maximum λem ([3]; PBS buffer pH 7.4): 662 nm
- extinction coefficient ε ([3]; PBS buffer pH 7.4): 51500 M⁻¹ cm⁻¹ and 51000 M⁻¹ cm⁻¹
- fluorescence quantum yield [3]: 0.42

Molecule: 5(6)-carboxy-Q-rhodamine
- stability of N-hydroxysuccinimidyl (NHS) ester [5]: does not form a stable N-hydroxysuccinimidyl ester
- absorption maximum [1, 9]: 540 nm
- emission maximum [1, 9]: 561 nm
- extinction coefficient ε [1, 9]: 70 000 M^−1 cm^−1
- fluorescence quantum yield [1, 9]: 0.79

- absorption maximum λmax [3, 10]: 532 nm
- emission maximum λmax [3, 10]: 553 nm
- extinction coefficient ε [3, 10]: 56000 M⁻¹ cm⁻¹
- fluorescence quantum yield Φfl, absolute value ([3]; aqueous solutions, excitation at 488 nm, dye 5 isomer 3): 0.89
- solubility [6]: water-soluble
- solubility ([6]; listed as 5-OH): much better soluble
- stability of N-hydroxysuccinimidyl (NHS) ester [5]: forms a stable NHS ester
Molecule: O=C(O)c1ccc(C(=O)[O-])c(C2=c3cc4c(cc3Oc3cc5c(cc32)CC(O)CN5CC(F)(F)F)=[N+](CC(F)(F)F)CC(O)C4)c1 (stereo not drawn) [Compound 5, N,N′-Bis-(2,2,2-trifluoroethyl)-6′-carboxy-Q-rhodamine-β,β′-diol]

Molecule: [CH3][Ge]1([CH3])[c]2cc(N3CC(O)C3)ccc2C2(OC(=O)c3ccc(C(=O)NCCOCCOCCCCCCCl)cc32)c2ccc(N3CC(O)C3)c[c]21 [Compound 33-Halo]
- absorption maximum λmax ([3]; PBS buffer pH 7.4): 639 nm
- emission maximum λem ([3]; PBS buffer pH 7.4): 660 nm

Molecule: CN(C)c1ccc2[c](c1)[Ge]([CH3])([CH3])[c]1cc(N(C)C)ccc1C21OC(=O)c2ccc(C(=O)NCCOCCOCCCCCCCl)cc21 [Compound 19-Halo]
- imaging performance in living cells (confocal and STED) [7]: high contrast images

- D0.5 in 1,4-dioxane/water [2]: 64.5
- absorption maximum λmax ([3]; PBS buffer pH 7.4): 645 nm
- emission maximum λem ([3]; PBS buffer pH 7.4): 661 nm
- extinction coefficient ε ([3]; PBS buffer pH 7.4): 93000 M⁻¹ cm⁻¹
- fluorescence quantum yield [3]: 0.41
Molecule: CN(C)c1ccc2c(c1)[Si](C)(C)c1cc(N(C)C)ccc1C21OC(=O)c2ccccc21 [SiR, reference compound]
